Tests used:
dopamine D2 receptors [1] = target: T1, dopamine D2 receptors (Homo sapiens (Human), UniProt P14416); assay: Dopamine D2 receptor radioligand competition binding assay ([3H]-Methylspiperone); settings: [3H]-Methylspiperone 0.3 to 0.5 nM, 293T membranes; read-out: Affinity Ki
How it was run: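 Membranes from cells transfected with human D2 receptor, PEI-mediated; competition with [3H]-methylspiperone for 2 h at room temperature in the dark.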

[2] = target: T2, 5-hydroxytryptamine 1A (5-HT1A) receptors (Homo sapiens (Human), UniProt P08908); assay: 5-HT1A receptor radioligand competition binding assay ([3H]-LSD); settings: 293T membranes, read-out: Affinity Ki
T2 sequence (P08908 whole entry): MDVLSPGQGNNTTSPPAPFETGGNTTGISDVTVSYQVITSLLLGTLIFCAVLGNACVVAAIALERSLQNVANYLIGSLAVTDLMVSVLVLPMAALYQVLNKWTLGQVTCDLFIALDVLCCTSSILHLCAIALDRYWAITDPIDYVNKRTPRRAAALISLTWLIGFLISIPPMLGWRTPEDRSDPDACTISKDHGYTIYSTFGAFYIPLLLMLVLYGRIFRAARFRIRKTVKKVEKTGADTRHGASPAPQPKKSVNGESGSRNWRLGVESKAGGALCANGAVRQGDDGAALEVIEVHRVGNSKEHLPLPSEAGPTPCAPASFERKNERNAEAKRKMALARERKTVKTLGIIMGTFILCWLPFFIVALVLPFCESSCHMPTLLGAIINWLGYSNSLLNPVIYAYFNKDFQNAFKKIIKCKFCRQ
Procedure: The affinity of the compounds of the present disclosure for 5-hydroxytryptamine 1A (5-HT1A) receptors was determined by a radioligand competition binding assay.
In the first step, a cell membrane component containing specific 5-HT1A receptors was prepared. […] A vacuum pump was used to suck off the culture medium, 3 mL of lysis buffer was added to each culture dish, and the cells were placed in a 4° C. cold room for 10 minutes. After the cells were detached, the cells were transferred to a 15 mL centrifuge tube and centrifuged at 1500 rpm for 5 minutes at 4° C., and the supernatant was discarded. The cell pellet was transferred to a tissue homogenizer, and 3 mL of lysis buffer was added and fully ground until the cells were broken. Then, cell suspension was equally aliquoted into several EP tubes, centrifuged at 12000 rpm for 5 minutes at 4° C., and the supernatant was discarded. The precipitate was the cell membrane component containing the 5-HT1A receptors.
First, a standard binding buffer was added to the cell membrane component containing the 5-HT1A receptors, and the cell membrane was disrupted and resuspended with an electric tissue homogenizer. 30 μL of membrane protein suspension was added to each well of a 96-well plate. Then, 30 μL of different drugs were added to the 96-well plate sequentially from bottom to top to ensure that the final drug concentrations were 10^−5 M, 10^−6 M, 10^−7 M, 10^−8 M, 10^−9 M, and 0 M, with two replicates per treatment. Next, 30 μL of [^3H]-LSD was added to each well of the 96-well plate. The plate was incubated at room temperature in the dark for 2 hours. Detection was conducted. The machine readout value reflected the amount of [^3H]-LSD bound on the membrane, and after further data processing, the binding affinity Ki values of different compounds for the 5-HT1A receptors were obtained.

[3] = target: T2, 5-hydroxytryptamine 1A (5-HT1A) receptors; assay: 5-HT1A receptor Gαi1 BRET (G protein trimer dissociation); format: cell-based; settings: relative to endogenous ligand 5-hydroxytryptamine
[4] = target: T2, 5-hydroxytryptamine 1A (5-HT1A) receptors; assay: 5-HT1A receptor β-arrestin2 BRET (recruitment); format: cell-based; settings: relative to endogenous ligand 5-hydroxytryptamine
Procedure: At the same time, in order to examine the downstream β-arrestin2 signaling pathway mediated by 5-HT1A receptors, on the first day, a 6 cm culture dish was used for transfection with 500 ng of 5-HT1A receptors containing C-terminal seaweed luciferase (5HT1AR-Rluc), 500 ng of G protein-coupled receptor kinase 2 (GRK2), 2500 ng of β-arrestin2 containing N-terminal green fluorescent protein (GFP2-ARRB2), and 14 μL of PEI. The next day, the confluent cells of a 6 cm culture dish were digested and reseeded into a 96-well plate with 100 μL of culture medium added to each well. On the third day, the drugs were added for test. The 96-well plate was taken out from the cell incubator to decant the culture medium, 40 µL of the substrate coelenterazine 400a (final concentration of 5 μM) was added to each well, and then 20 μL of different drugs were added sequentially from left to right to ensure that the final concentration of the drug decreased gradually from bottom to top, with two replicates per treatment. Finally, the prepared samples were loaded on machine for test. The machine readout value reflected the recruitment of β-arrestin2 to the membrane or the dissociation of G protein trimer. The former indicated the degree of activation of the β-arrestin2 signaling pathway downstream of the 5-HT1 serotonin 1A receptors, and the latter indicated the degree of activation of the G protein signaling pathway downstream of the serotonin 1A receptors.

dopamine D2 receptors [5] = target: T1, dopamine D2 receptors; assay: Dopamine D2 receptor Gαi1 BRET (G protein trimer dissociation); format: cell-based; settings: for Emax: relative to endogenous ligand dopamine, read-out: Gαi1 BRET Emax % ± SEM; for EC50: unit printed only in Cariprazine cell, read-out: Gαi1 BRET EC50
How it was run: (§1)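 G-protein assay: cells co-transfected with D2 receptor, Gαi1-Rluc, Gβ3 and Gγ9-GFP (1 μg each); β-arrestin2 assay: D2-Rluc, GRK2 and GFP2-β-arrestin2 co-transfected. Cells were reseeded after one day and tested on day three. Drug dilution series were added in duplicate with coelenterazine 400a (5 μM final), and the BRET signal was read.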

dopamine D2 receptors [6] = target: T1, dopamine D2 receptors; assay: Dopamine D2 receptor β-arrestin2 BRET (recruitment); format: cell-based; settings: for Emax: relative to endogenous ligand dopamine, read-out: β-arrestin2 BRET Emax % ± SEM; for EC50: unit printed only in Cariprazine cell, read-out: β-arrestin2 BRET EC50
How it was run: as §1

T1 sequence (P14416 whole entry): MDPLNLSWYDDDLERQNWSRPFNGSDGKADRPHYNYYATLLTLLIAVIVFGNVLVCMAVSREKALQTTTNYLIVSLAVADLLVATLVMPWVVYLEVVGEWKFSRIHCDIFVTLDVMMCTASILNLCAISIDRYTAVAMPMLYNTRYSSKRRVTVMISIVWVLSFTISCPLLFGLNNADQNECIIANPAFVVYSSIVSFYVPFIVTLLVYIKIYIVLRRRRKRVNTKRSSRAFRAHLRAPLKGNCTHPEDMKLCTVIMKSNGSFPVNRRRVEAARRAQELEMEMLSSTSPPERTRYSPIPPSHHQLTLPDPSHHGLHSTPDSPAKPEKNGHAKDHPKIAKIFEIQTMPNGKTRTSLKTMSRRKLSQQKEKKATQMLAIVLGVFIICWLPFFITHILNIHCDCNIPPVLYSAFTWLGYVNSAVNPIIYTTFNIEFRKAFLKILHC

Row | Ki (dopamine D2 receptors [1]) | Ki [2] | Emax [3] | Emax [4] | Emax (dopamine D2 receptors [5]) | EC50 (dopamine D2 receptors [5]) | Emax (dopamine D2 receptors [6]) | EC50 (dopamine D2 receptors [6]) | SMILES
1 | 272 nM | 5.43 nM | 123% | 92% | – | – | – | – | COc1cccc2c3c(oc12)CN(CCNC(=O)C1CCC(F)(F)CC1)CC3 [I-A15, 4,4-difluoro-N-(2-(8-methoxy-3,4-dihydrobenzofuro[2,3-c]pyridin-2(1H)-yl)ethyl)cyclohexane-1-carboxamide]
2 | – | 0.073 nM | 59.5% | 49.6% | 79% | 56 nM | 89% | 86.4 nM | COc1cccc2c3c(oc12)CN(CCCCn1ncc(=O)n(C)c1=O)CC3 [I-A22, 2-(4-(8-methoxy-3,4-dihydrobenzofuro[2,3-c]pyridin-2(1H)-yl)butyl)-4-methyl-1,2,4-triazine-3,5(2H,4H)-dione]
3 | – | 2.55 nM | 102% | 31.6% | 21% | 12.9 nM | 12% | 233 nM | CCOc1cccc2c3c(oc12)CN(CCNC(=O)C1CCCCCC1)CC3 [I-A32, N-(2-(8-ethoxy-3,4-dihydrobenzofuro[2,3-c]pyridin-2(1H)-yl)ethyl)cycloheptanecarboxamide]

Reference: patent US20250109139A1, “TRICYCLIC COMPOUND, AND PREPARATION METHOD THEREFOR AND USE THEREOF” (SHANGHAITECH UNIVERSITY, priority 2022, published 2025)
